Source: patent US20060135500A1, “Novel oral pharmaceutical suspension of cefdinir crystal” (Astellas Pharma Inc., priority 2004, published 2006)

Assays:
Format in all cases: physicochemical
[1] = Solvent medium transformation (suspension in water or ethanol, PXRD of residual solid); details: water or ethanol (99.5), room temperature
Procedure: Form A and the monohydrate were suspended in water or ethanol (99.5) at room temperature, and the powder X-ray diffraction (PXRD) patterns of the residual solid materials were measured (Bruker AXS D8 Discover with GADDS).

[2] = Dispersibility comparison assay, Method 2 (change of transmittance at 650 nm); details: 5 mg in 10 mL of water (0.5 mg/mL)
Procedure: The dispersibility of two crystal forms of Cefdinir was compared by evaluating sedimentation rates of two crystal forms. The evaluating sedimentation rate was conducted by using two methods as follow.
5 mg of crystal form A or the monohydrate were dispersed in 10 mL of water (sample concentration: 0.5 mg/mL), and the suspensions were vigorously shaken. Then, the dispersed suspensions were transferred in the cell for UV measurement, and changes of the transmittances at 650 nm were measured.

[3] = Dispersibility comparison assay, Method 1 (visual observation of suspension in test tube); details: summary statement
Procedure: The dispersibility of two crystal forms of Cefdinir was compared by evaluating sedimentation rates of two crystal forms. The evaluating sedimentation rate was conducted by using two methods as follow. About 1250 mg of crystal form A or the monohydrate were dispersed in 50 mL of water (125 mg/5 mL), and the suspensions were vigorously shaken by hand. […] The pictures of suspension states were taken with time.

| Compound | crystalline conversion in aqueous and ethanol suspensions (PXRD of residual solid) [1] | change of transmittance of suspension at 650 nm [2] | dispersibility in aqueous solvent [3] | sedimentation rate in aqueous solvent [3] |
| --- | --- | --- | --- | --- |
| C=CC1=C(C(=O)O)N2C(=O)C(NC(=O)C(=NO)c3csc(N)n3)[C@H]2SC1 (single isomer, unassigned) [form A, 7-[2-(2-aminothiazol-4-yl)-2-hydroxyiminoacetamido]-3-vinyl-3-cephem-4-carboxyl ic acid (syn isomer)] | no crystalline conversion to other crystal form | faster increase than that of the monohydrate | – | – |
| C=CC1=C(C(=O)O)N2C(=O)C(NC(=O)C(=NO)c3csc(N)n3)[C@H]2SC1 (single isomer, unassigned) [crystal form C, 7-[2-(2-aminothiazol-4-yl)-2-hydroxyiminoacetamido]-3-vinyl-3-cephem-4-carboxyl ic acid (syn isomer)] | – | – | higher than that of crystal form A | lower than that of crystal form A |
